# Read-outs that look alike come from different tables or passages of the source.
# What was measured:
# [1] = tested on: ZF4 (fibroblasts) cell line; assay: BCA assay (MTS/BCA multiplex), protein amount; assay type: cell-based, zebrafish (Danio rerio); conditions: Danio rerio, Fibroblast
# [2] = tested on: ZFL (hepatocytes) cell line; assay: cells; assay type: cell-based, zebrafish (Danio rerio); conditions: Danio rerio, Hepatocyte
# ZF4 and ZFL cell lines = assay: Cytotoxicity assays, all endpoints, both cell lines (mean/range); assay type: cell-based, zebrafish (Danio rerio); conditions: 48 h, mean of all cytotoxicity endpoints (without LDH) in ZF4 and ZFL
# [3] = tested on: ZF4 (fibroblasts) cell line; assay: Neutral red, fluorescence (NRf), AB/CFDA/NR multiplex, lysosome stability; assay type: cell-based, zebrafish (Danio rerio); conditions: Danio rerio, Fibroblast
# zebrafish embryos [4] = tested on: zebrafish embryos; parameters: method as in earlier work; conditions: nominal, cited from earlier work
# [5] = tested on: ZFL (hepatocytes) cell line; assay: cells; assay type: cell-based, zebrafish (Danio rerio); conditions: Danio rerio, Hepatocyte; remark: listed apart in the source
# [6] = tested on: zebrafish cell lines vs zebrafish embryo; assay: Potency ratios IC50;x/EC50;x (cytotoxicity assays vs mFET); parameters: species or system zebrafish (Danio rerio)
# [7] = tested on: diverse mammalian cell assay results; parameters: method as in https://comptox.epa.gov/dashboard/; conditions: COMPTOX; ref https://comptox.epa.gov/dashboard/; read-out: median AC50; cited from earlier work
# [8] = ref Comptox, PubChem or DrugBank; cited from earlier work
# [9] = tested on: ZFL (hepatocytes) cell line; assay: cells; assay type: cell-based, zebrafish (Danio rerio); conditions: Danio rerio, Hepatocyte; remark: listed apart in the source
# [10] = tested on: ZFL (hepatocytes) cell line; assay: cells; assay type: cell-based, zebrafish (Danio rerio); conditions: Danio rerio, Hepatocyte; remark: listed apart in the source
# [11] = tested on: ZFL (hepatocytes) cell line; assay: cells; assay type: cell-based, zebrafish (Danio rerio); conditions: Danio rerio, Hepatocyte; remark: listed apart in the source
# zebrafish embryos [12] = assay: animal or person; assay type: in vivo, zebrafish (Danio rerio); conditions: for EC50: Danio rerio
# [13] = tested on: ZFL (hepatocytes) cell line; assay: cells; assay type: cell-based, zebrafish (Danio rerio); conditions: Danio rerio, Hepatocyte; remark: listed apart in the source
# [14] = tested on: ZF4 (fibroblasts) cell line; assay: Neutral red, absorbance (NRa), AB/CFDA/NR multiplex, lysosome stability; assay type: cell-based, zebrafish (Danio rerio); conditions: Danio rerio, Fibroblast
# [15] = tested on: ZF4 (fibroblasts) cell line; assay: CFDA endpoint of AB/CFDA/NR multiplex, membrane stability; assay type: cell-based, zebrafish (Danio rerio); conditions: Danio rerio, Fibroblast
# [16] = tested on: ZF4 (fibroblasts) cell line; assay: ATP assay (ATP/LDH multiplex), ATP metabolism; assay type: cell-based, zebrafish (Danio rerio); conditions: Danio rerio, Fibroblast
# [17] = tested on: ZF4 (fibroblasts) cell line; assay: alamarBlue (AB) endpoint of AB/CFDA/NR multiplex, cellular respiration; assay type: cell-based, zebrafish (Danio rerio); conditions: Danio rerio, Fibroblast
# [18] = tested on: ZF4 (fibroblasts) cell line; assay: MTS assay (MTS/BCA multiplex), NAD(P)H metabolism; assay type: cell-based, zebrafish (Danio rerio); conditions: Danio rerio, Fibroblast
# [19] = tested on: ZFL (hepatocytes) cell line; assay: cells; assay type: cell-based, zebrafish (Danio rerio); conditions: Danio rerio, Hepatocyte; remark: listed apart in the source
compound,measurement,setting,value
"COC(=O)Nc1nc2ccc(Sc3ccccc3)cc2[nH]1 [Fenbendazole, fenbendazole]",IC50,"[1]; BCA - ZF4, log10 of IC50, read-out: LogIC50 (converted)",1150 nM
same,IC50,"[1]; BCA - ZF4, read-out: IC50",1150 nM
same,IC50,"[1]; ZF4, 48 h exposure, nominal, log10, read-out: logIC50 (log10 IC50;nom) BCA (converted)",1150 nM
same,IC50,"[1]; ZF4, 48 h exposure, nominal, read-out: IC50;nom BCA",1150 nM
same,IC50,"[2]; AB - ZFL, log10 of IC50, read-out: LogIC50 (converted)",985 nM
same,IC50,"[2]; AB - ZFL, read-out: IC50",985 nM
same,IC50,"[2]; ZFL, 48 h exposure, nominal, log10, read-out: logIC50 (log10 IC50;nom) AB (converted)",977 nM
same,IC50,"[2]; ZFL, 48 h exposure, nominal, read-out: IC50;nom AB",985 nM
same,IC50,"ZF4 and ZFL cell lines; Danio rerio, log10, read-out: Mean log IC50nom (converted)",2400 nM
same,Mean log IC50nom,"ZF4 and ZFL cell lines; log10, listed as Fen",-5.623 M
same,IC50,"[3]; NR-fluo - ZF4, log10 of IC50, read-out: LogIC50 (converted)",10400 nM
same,IC50,"[3]; NR-fluo - ZF4, read-out: IC50",10400 nM
same,IC50,"[3]; ZF4, 48 h exposure, nominal, log10, read-out: logIC50 (log10 IC50;nom) NRf (converted)",10500 nM
same,IC50,"[3]; ZF4, 48 h exposure, nominal, read-out: IC50;nom NRf",10400 nM
same,EC50,"zebrafish embryos [4]; 144 hpf, converted",80.2 nM
same,logEC50 144 hpf,zebrafish embryos [4]; log10,-7.0959 M
same,IC50,"[5]; MTS - ZFL, log10 of IC50, read-out: LogIC50 (converted)",166 nM
same,IC50,"[5]; MTS - ZFL, read-out: IC50",166 nM
same,IC50,"[5]; ZFL, 48 h exposure, nominal, log10, read-out: logIC50 (log10 IC50;nom) MTS (converted)",166 nM
same,IC50,"[5]; ZFL, 48 h exposure, nominal, read-out: IC50;nom MTS",166 nM
same,potency ratio IC50;nom/EC50;nom (median),"[6]; median over cytotoxicity endpoints, nominal, 48 h cells / 48 hpf mFET",33.3
same,difference in sensitivity between embryo (EC50;nom) and cells (IC50;nom),"[6]; nominal concentrations, higher potency in the mFET",two to three log-scales more sensitive in the mFET
same,AC50,[7],900 nM
same,BCF,[8],1.18E+03
same,Physiological charge,[8],0
same,Water Solubility,[8],insoluble
same,logKoa,[8],9.49
same,logKow,[8],3.21
same,pKa (Strongest Acidic),[8],9.59
same,pKa (Strongest Basic),[8],4.06
same,w_solubility (water solubility),[8],26.7 µM
same,IC50,"[9]; ATP - ZFL, log10 of IC50, read-out: LogIC50 (converted)",9850 nM
same,IC50,"[9]; ATP - ZFL, read-out: IC50",9850 nM
same,IC50,"[9]; ZFL, 48 h exposure, nominal, log10, read-out: logIC50 (log10 IC50;nom) ATP (converted)",9770 nM
same,IC50,"[9]; ZFL, 48 h exposure, nominal, read-out: IC50;nom ATP",9850 nM
same,IC50,"[10]; NR-fluo - ZFL, log10 of IC50, read-out: LogIC50 (converted)",584 nM
same,IC50,"[10]; NR-fluo - ZFL, read-out: IC50",584 nM
same,IC50,"[10]; ZFL, 48 h exposure, nominal, log10, read-out: logIC50 (log10 IC50;nom) NRf (converted)",589 nM
same,IC50,"[10]; ZFL, 48 h exposure, nominal, read-out: IC50;nom NRf",584 nM
same,IC50,"[11]; BCA - ZFL, log10 of IC50, read-out: LogIC50 (converted)",125 nM
same,IC50,"[11]; BCA - ZFL, read-out: IC50",125 nM
same,IC50,"[11]; ZFL, 48 h exposure, nominal, log10, read-out: logIC50 (log10 IC50;nom) BCA (converted)",126 nM
same,IC50,"[11]; ZFL, 48 h exposure, nominal, read-out: IC50;nom BCA",125 nM
same,difference in toxicity (EC50;nom) between 48 hpf and 144 hpf,zebrafish embryos [12]; 48 hpf time point less sensitive than 144 hpf,approximately the same
same,log EC50;nom (mFET),"zebrafish embryos [12]; 48 hpf, nominal, log10, listed as Fen",-7.115 M
same,EC50,"zebrafish embryos [12]; 48 hpf, nominal, log10, read-out: log EC50;nom (mFET) (converted)",77.6 nM
same,EC50,"zebrafish embryos [12]; 48 hpf, nominal, read-out: EC50;nom (embryo)",0.02 µg/mL
same,EC50,zebrafish embryos [12]; read-out: EC50 48hpf,76.8 nM
same,EC50,zebrafish embryos [12]; read-out: EC50;nom (mFET),76.8 nM
same,IC50,"[13]; CFDA - ZFL, log10 of IC50, read-out: LogIC50 (converted)",21400 nM
same,IC50,"[13]; CFDA - ZFL, read-out: IC50",21400 nM
same,IC50,"[13]; ZFL, 48 h exposure, nominal, log10, read-out: logIC50 (log10 IC50;nom) CFDA (converted)",21400 nM
same,IC50,"[13]; ZFL, 48 h exposure, nominal, read-out: IC50;nom CFDA",21400 nM
same,IC50,"[14]; NR-abs - ZF4, log10 of IC50, read-out: LogIC50 (converted)",1550 nM
same,IC50,"[14]; NR-abs - ZF4, read-out: IC50",1550 nM
same,IC50,"[14]; ZF4, 48 h exposure, nominal, log10, read-out: logIC50 (log10 IC50;nom) NRa (converted)",1550 nM
same,IC50,"[14]; ZF4, 48 h exposure, nominal, read-out: IC50;nom NRa",1550 nM
same,IC50,"[14]; ZF4 cell line, NRa endpoint, nominal, read-out: IC50;nom",0.46 µg/mL
same,IC50,"[15]; CFDA - ZF4, log10 of IC50, read-out: LogIC50 (converted)",49500 nM
same,IC50,"[15]; CFDA - ZF4, read-out: IC50",49500 nM
same,IC50,"[15]; ZF4, 48 h exposure, nominal, log10, read-out: logIC50 (log10 IC50;nom) CFDA (converted)",49000 nM
same,IC50,"[15]; ZF4, 48 h exposure, nominal, read-out: IC50;nom CFDA",49500 nM
same,IC50,"[16]; ATP - ZF4, log10 of IC50, read-out: LogIC50 (converted)",7490 nM
same,IC50,"[16]; ATP - ZF4, read-out: IC50",7490 nM
same,IC50,"[16]; ZF4, 48 h exposure, nominal, log10, read-out: logIC50 (log10 IC50;nom) ATP (converted)",7410 nM
same,IC50,"[16]; ZF4, 48 h exposure, nominal, read-out: IC50;nom ATP",7490 nM
same,IC50,"[17]; AB - ZF4, log10 of IC50, read-out: LogIC50 (converted)",3570 nM
same,IC50,"[17]; AB - ZF4, read-out: IC50",3570 nM
same,IC50,"[17]; ZF4, 48 h exposure, nominal, log10, read-out: logIC50 (log10 IC50;nom) AB (converted)",3550 nM
same,IC50,"[17]; ZF4, 48 h exposure, nominal, read-out: IC50;nom AB",3570 nM
same,IC50,"[18]; MTS - ZF4, log10 of IC50, read-out: LogIC50 (converted)",5840 nM
same,IC50,"[18]; MTS - ZF4, read-out: IC50",5840 nM
same,IC50,"[18]; ZF4, 48 h exposure, nominal, log10, read-out: logIC50 (log10 IC50;nom) MTS (converted)",5890 nM
same,IC50,"[18]; ZF4, 48 h exposure, nominal, read-out: IC50;nom MTS",5840 nM
same,IC50,"[19]; NR-abs - ZFL, log10 of IC50, read-out: LogIC50 (converted)",532 nM
same,IC50,"[19]; NR-abs - ZFL, read-out: IC50",532 nM
same,IC50,"[19]; ZFL, 48 h exposure, nominal, log10, read-out: logIC50 (log10 IC50;nom) NRa (converted)",537 nM
same,IC50,"[19]; ZFL, 48 h exposure, nominal, read-out: IC50;nom NRa",532 nM

# From article PMC7872314, “Modeling Bioavailable Concentrations in Zebrafish Cell Lines and Embryos Increases the Correlation of Toxicity Potencies across Test Systems” (Environmental Science & Technology, 2020)
